From patent publication US20100062052A1, “PEPTIDE-BASED COMPOUNDS AS NEW INHIBITORS OF METALLOECTOPEPTIDASES, COMPOSITIONS COMPRISING SAID COMPOUNDS AND THEIR PHARMACEUTICAL AND COSMETIC USES” (GREENPHARMA, priority 2007, published 2010) come the findings set out here.

Residues, ends and D or L forms follow the SMILES beside them. *: point of attachment. Palmitoyl = CCCCCCCCCCCCCCCC(=O)* Where only a bound is given, the exact number is not on record here.

The data set can be described thus: Solubility in aqueous Tris-buffer. Type of data set: physicochemical. The settings on record: diluted from ethanol stock, read-out: solubility limit in aqueous Tris-buffer conditions.

Regarding `CCCCCCCCCCCCCCCC(=O)N[C@@H](CCC(N)=O)C(=O)N[C@@H](CCCNC(=N)N)C(=O)N[C@@H](Cc1ccccc1)C(=O)N[C@@H](CO)C(=O)N[C@@H](CCCNC(=N)N)C(N)=O` [Pal-QRFSR-NH2, palmitoyl-QRFSR-NH2] (Palmitoyl-QRFSR-NH2), the solubility was not above 70 µM.
